Values quoted from earlier work in article PMC5381245 (Theranostics, 2017).

Tested on: tumor
Conditions: 2 h p.i.

Row | tumor uptake [%ID/g] | tumor-to-kidney uptake ratio | tumor-to-kidneys uptake ratio | Substance
1 | 13.4 ± 1.6 | – | – | NOTA-GlyGly-Nle-CycMSHhex (sidechain bridge or staple) [^64Cu-labeled NOTA-GlyGly-Nle-CycMSHhex]
2 | – | 2.8 | – | ^111In-DOTA-GlyGly-Nle-CycMSHhex (sidechain bridge or staple)
3 | 19.4 ± 1.7 | – | 2.0 | ^111In-DOTA-Nle-CycMSHhex (sidechain bridge or staple)
